From patent US10028943B2, “Method for treatment of radiologically-dense breasts” (priority 2015, dated 2018)

Experiments:
[1] = test system: mammography-established dense breasts; experiment: Treatment of dense breasts: oral reduced TEMPOL in a person; format: in vivo, human
Method: The reduced form of TEMPOL (TEMPOL-H) or equivalent pharmacologically-active spin label/spintrap is prepared by mixing together 2 grams of TEMPOL or a pharmacologically effective amount of another spin-label or spin trap such as methynitrosopropane, 20 grams of ascorbic acid or other reducing compound in 100 ml of distilled water. The formulation is used as is. The solution is slightly-bitter. The formulation can be administered diluted in a suitable liquid such as juice, tea, or coffee. An equivalent dry form as 10 mg of tempol mixed with 100 mg of ascorbic acid or equivalent reducing substance can be easily prepared in capsule or tablet form.
One-half ml of the above solution, comprising 10 mg TEMPOL plus 100 mg ascorbic acid, was administered orally once a day to a 50 kg person with mammography-established dense breasts.

acute ischemic stroke = details: Shuaib et al. N Engl J Med 2007; cited from earlier work
breast density = experiment: Extemporaneous oral TEMPOL-H treatment for fibrocystic disease of breast; format: in vivo, human; details: patient

Compound: CC1(C)CC(O)CC(C)(C)N1[O] [Tempol, 4-hydroxy-2,2,6,6-tetramethylpiperidin-1-yloxy]
- efficacy of unreduced Tempol itself ([1]; same doses as reduced TEMPOL (10 mg)): effective at the same doses

Compound: CC(C)(C)[N+]([O-])=Cc1ccc(S(=O)(=O)[O-])cc1S(=O)(=O)[O-].[Na+].[Na+] [NXY-059, disulfonyl PBN]
- neuroprotective efficacy (acute ischemic stroke): effective in animal models, but not in humans

Compound: CC1(C)CC(O)CC(C)(C)N1O [TEMPOL-H, the hydroxylamine reduced form of the nitroxide 4-hydroxy-2,2,6,6-tetramethylpiperidin-1-yloxy]
- mammographic clearing of breast densities ([1]; 10 mg TEMPOL plus 100 mg ascorbic acid orally once a day, 50 kg person, first results after several weeks of treatment): significant mammographic clearing of breast densities
- breast densities on cessation of treatment ([1]; cessation of treatment for a few weeks): eventually reappear on cessation of treatment for a few weeks
- breast densities upon reinstatement of treatment ([1]; reinstatement of treatment): breast densities reoccur
- clinical signs and symptoms upon cessation of treatment (breast density; after cessation of treatment): reappeared within a few weeks
- clinical signs and symptoms upon resumption of treatment (breast density; after resumption of treatment): again regressed
- clearing of breast density (breast density; oral formulation of TEMPOL-H): significant clearing of breast density
